Test [1] concerns AB1054 OXA-23. Put plainly: Meropenem potentiation assay (MPC@8) and meropenem MIC. It counts as cell-based, Acinetobacter baumannii. The procedure:
(§1) β-lactamase inhibitors were also tested for their ability to potentiate the carbapenem meropenem against strains of Acinetobacter baumannii producing class D (OXA-23 and OXA-72) carbapenemases. […] Meropenem was present in the test medium at 8 μg/mL. Compounds were tested at concentrations up to 20 μg/mL. In this assay, potency of compounds was reported as the minimum concentration of BLI required to inhibit growth of bacteria in the presence of 8 μg/mL of meropenem (MPC@8).

The subject of test [2] is AB1053 OXA-72. Described as above. The format is cell-based, Acinetobacter baumannii. To be noted: A. baumannii strain AB1053 OXA-72. The method, then: as §1
The subject of test [3] is ec308 SHV-5. Put plainly: Aztreonam potentiation assay (MPC@4) and aztreonam MIC. The format is cell-based. The settings on record: strain ec308 SHV-5. The procedure: (§2) The potency and spectrum of β-lactamase inhibitors (BLIs) was determined by assessing their aztreonam potentiation activity in a dose titration potentiation assay using strains of various bacteria that are resistant to aztreonam due to expression of various β-lactamases. Aztreonam is a monobactam antibiotic and is hydrolyzed by the majority of β-lactamases that belong to class A or C (but not class B or D). The potentiation effect was observed as the ability of BLI compounds to inhibit growth in the presence of sub-inhibitory concentration of aztreonam. […] Aztreonam was present in the test medium at 4 μg/mL. Compounds were tested at concentrations up to 20 μg/mL. In this assay, potency of compounds was reported as the minimum concentration of BLI required to inhibit growth of bacteria in the presence of 4 μg/mL of aztreonam (MPC@4). Table 1 summarizes the BLI potency of aztreonam potentiation (MPC@4) for various strains overexpressing class A (ESBL and KPC), and class C β-lactamases. Aztreonam MIC for each strain is also shown.

Test [4] has as its system KP1010 SHV-12. Described as above. The format is cell-based. The settings on record: strain KP1010 SHV-12. The method, then:
as §2

The subject of test [5] is KP1005 CTX-M-14. The description is as above. It counts as cell-based. The method, then: as §2
In test [6] the test system is KP1004 KPC-2. The test is described as above. The format is cell-based. The method, then:
as §2

The test system of test [7] is ec302 TEM-10. Described as above. It counts as cell-based. To be noted: strain ec302 TEM-10. The method, then: as §2
Test [8] has as its system ECL1002. The description is as above. The format is cell-based. To be noted: strain ECL1002. The method, then:
as §2

The test system of test [9] is EC1010 CMY-6. The description is as above. It counts as cell-based. To be noted: strain EC1010 CMY-6. The procedure:
as §2

Test [10] concerns KP1009 CTX-M-15. The description is as above. It counts as cell-based. The settings on record: strain KP1009 CTX-M-15. The procedure: as §2
The test system of test [11] is ec308 SHV-5. Put plainly: Tigemonam potentiation assay (MPC@4) and tigemonam MIC. The format is cell-based. The settings on record: strain ec308 SHV-5. The procedure:
(§3) Selected β-lactamase inhibitors were also tested for their ability to potentiate the monobactam tigemonam. […] Tigemonam was present in the test medium at 4 μg/mL. Compounds were tested at concentrations up to 20 μg/mL. In this assay, potency of compounds was reported as the minimum concentration of BLI required to inhibit growth of bacteria in the presence of 4 μg/mL of tigemonam (MPC@4). Table 2 summarizes the BLI potency of tigemonam potentiation (MPC@4) for various strains overexpressing class A (ESBL) and class C β-lactamases.

The test system of test [12] is KP1010 SHV-12. Described as above. It counts as cell-based. The settings on record: strain KP1010 SHV-12. The method, then:
as §3

Test [13] relates to KP1005 CTX-M-14. The test is described as above. The settings on record: strain KP1005 CTX-M-14. It counts as cell-based. The method, then: as §3
Test [14] deals with ec302 TEM-10. The test is described as above. The format is cell-based. The settings on record: strain ec302 TEM-10. The method, then: as §3
Test [15] relates to ECL1002. Described as above. The format is cell-based. The settings on record: strain ECL1002. The procedure: as §3
Test [16] concerns EC1010 CMY-6. Described as above. The format is cell-based. To be noted: strain EC1010 CMY-6. The method, then:
as §3

The test system of test [17] is KP1009 CTX-M-15. The description is as above. The format is cell-based. The settings on record: strain KP1009 CTX-M-15. The method, then:
as §3

In test [18] the test system is KP1004 KPC-2. Put plainly: Biapenem potentiation assay (MPC@1) and biapenem MIC. The settings on record: strain KP1004 KPC-2. The format is cell-based. The method, then:
(§4) β-lactamase inhibitors were also tested for their ability to potentiate the carbapenem biapenem against strains producing class A (KPC), class D (OXA-48), and class B (metallo β-lactamases, NDM-1 and VIM-1) carbapenemases. The potentiation effect was observed as the ability of BLI compounds to inhibit growth in the presence of a sub-inhibitory concentration of biapenem. […] Biapenem was present in the test medium at 1 μg/mL. Compounds were tested at concentrations up to 20 μg/mL. In this assay, potency of compounds was reported as the minimum concentration of BLI required to inhibit growth of bacteria in the presence of 1 μg/mL of biapenem (MPC@1). Table 3 summarizes the BLI potency of biapenem potentiation (MPC@1) for four strains overexpressing class A (KPC), class D (OXA-48), and class B (NDM-1 and VIM-1) carbapenemases. Biapenem MIC for each strain is also shown.

Test [19] concerns KP1086 OXA-48. The description is as above. The format is cell-based. To be noted: strain KP1086 OXA-48. The method, then: as §4
The test system of test [20] is KP1081 NDM-1. The description is as above. It counts as cell-based. To be noted: strain KP1081 NDM-1. The method, then:
as §4

Test [21] has as its system KP1054 VIM-1. Described as above. To be noted: minimum BLI concentration inhibiting growth with biapenem 1 μg/mL; strain KP1054 VIM-1; tested up to 20 μg/mL. It counts as cell-based. The procedure: as §4
Test [22] concerns strains producing class A (KPC), class D (OXA-48), and class B (NDM-1 and VIM-1) carbapenemases. The experiment in a line: Biapenem MIC of the test strains (panel). The format is cell-based. The settings on record: span over all test strains of Table 3. The procedure:
as §4

Setting [23] is: minimum BLI concentration inhibiting growth with aztreonam 4 μg/mL, tested up to 20 μg/mL.
The mark [24] stands for this setting: minimum BLI concentration inhibiting growth with tigemonam 4 μg/mL, tested up to 20 μg/mL.
The mark [25] stands for this setting: minimum BLI concentration inhibiting growth with biapenem 1 μg/mL, tested up to 20 μg/mL.

By MIC is commonly meant the lowest concentration that inhibits growth of the organism.

`COc1ccc2c(c1C(=O)O)OB(O)CC2Cn1cc(CO)nn1` (stereo not drawn) [Compound 16, 2-hydroxy-4-[[4-(hydroxymethyl)triazol-1-yl]methyl]-7-methoxy-3,4-dihydro-1,2-benzoxaborinine-8-carboxylic Acid]: the “MPM MPC8 AB1054 OXA-23” value in [1] (minimum BLI concentration inhibiting growth with meropenem 8 μg/mL, A. baumannii strain AB1054 OXA-23, tested up to 20 μg/mL) was “Y (Y = 5 μg/mL < MPC@1 ≤ 20 μg/mL)”. Further, in test [2] (minimum BLI concentration inhibiting growth with meropenem 8 μg/mL, tested up to 20 μg/mL), the “MPM MPC8 AB1053 OXA-72” value is “X (X = MPC@1 ≤ 5 μg/mL)”. The “AZT MPC4 SHV-5 ec308” value in test [3] (setting [23]) is given as “X (X = MPC@4 ≤ 5 μg/mL)”. In test [4] (setting [23]), the “AZT MPC4 SHV-12 KP1010” value is recorded as “X (X = MPC@4 ≤ 5 μg/mL)”. Moreover, the “AZT MPC4 CTX-M-14 KP1005” value in [5] (minimum BLI concentration inhibiting growth with aztreonam 4 μg/mL, strain KP1005 CTX-M-14, tested up to 20 μg/mL) is given as “X (X = MPC@4 ≤ 5 μg/mL)”. In addition, the “AZT MPC4 KPC-2 KP1004” value in test [6] (minimum BLI concentration inhibiting growth with aztreonam 4 μg/mL, strain KP1004 KPC-2, tested up to 20 μg/mL) is “X (X = MPC@4 ≤ 5 μg/mL)”. In test [7] (setting [23]), the “AZT MPC4 TEM-10 ec302” value was “X (X = MPC@4 ≤ 5 μg/mL)”. The “AZT MPC4 ECL1002” value in test [8] (setting [23]) is given as “X (X = MPC@4 ≤ 5 μg/mL)”. The “AZT MPC4 CMY-6 EC1010” value in test [9] (setting [23]) is on record as “X (X = MPC@4 ≤ 5 μg/mL)”. Further, the “AZT MPC4 CTX-M-15 KP1009” value in test [10] (setting [23]) is listed as “X (X = MPC@4 ≤ 5 μg/mL)”. For the same compound, the “TIG MPC4 SHV-5 ec308” value in test [11] (setting [24]) is on record as “X (X = MPC@4 ≤ 5 μg/mL)”. The “TIG MPC4 SHV-12 KP1010” value in [12] (setting [24]) was “X (X = MPC@4 ≤ 5 μg/mL)”. Also, the “TIG MPC4 CTX-M-14 KP1005” value in test [13] (setting [24]) is “Y (Y = 5 μg/mL < MPC@4 ≤ 20 μg/mL)”. In [14] (setting [24]), the “TIG MPC4 TEM-10 ec302” value was “Y (Y = 5 μg/mL < MPC@4 ≤ 20 μg/mL)”. Also, the “TIG MPC4 ECL1002” value in test [15] (setting [24]) was “X (X = MPC@4 ≤ 5 μg/mL)”. For the same compound, the “TIG MPC4 CMY-6 EC1010” value in test [16] (setting [24]) is “X (X = MPC@4 ≤ 5 μg/mL)”. Further, in test [17] (setting [24]), the “TIG MPC4 CTX-M-15 KP1009” value was “X (X = MPC@4 ≤ 5 μg/mL)”. For the same compound, in test [18] (setting [25]), the “BPM MPC1 KP1004 KPC-2” value is listed as “X (X = MPC@1 ≤ 5 μg/mL)”. Moreover, the “BPM MPC1 OXA-48 KP1086” value in [19] (setting [25]) is on record as “Y (Y = 5 μg/mL < MPC@1 ≤ 20 μg/mL)”. The “BPM MPC1 KP1081 NDM-1” value in test [20] (setting [25]) is listed as “Y (Y = 5 μg/mL < MPC@1 ≤ 20 μg/mL)”. Moreover, the “BPM MPC1 KP1054 VIM-1” value in test [21] is listed as “Y (Y = 5 μg/mL < MPC@1 ≤ 20 μg/mL)”.
On to `CC1(C)[C@H](NC(=O)/C(=N\OCC(=O)O)c2csc(N)n2)C(=O)N1OS(=O)(=O)O` [Tigemonam], for which the “Tigemonam MIC” value was over 64 µg/mL in test [11] (tigemonam alone); over 64 µg/mL in test [12] (tigemonam alone); over 64 µg/mL in [13] (tigemonam alone); over 64 µg/mL in [14] (tigemonam alone); 32 µg/mL in test [15] (tigemonam alone); 16 µg/mL in [16] (tigemonam alone). Also, the “Tigemonam MIC” value in [17] (tigemonam alone) is over 64 µg/mL.
Turning to `C[C@@H](O)[C@H]1C(=O)N2C(C(=O)[O-])=C(SC3Cn4cnc[n+]4C3)[C@H](C)[C@H]12` (stereo partly drawn) [Biapenem], the minimal inhibitory concentration (MIC) was 16 to 32 µg/mL in [22], 32 µg/mL in test [18] (biapenem alone), 16 µg/mL in test [19] (biapenem alone) and 16 µg/mL in test [20] (biapenem alone).
As for `C[C@H]1[C@H](NC(=O)/C(=N\OC(C)(C)C(=O)O)c2csc(N)n2)C(=O)N1S(=O)(=O)O` [Aztreonam], the minimum inhibitory concentration (MIC) in test [3] (aztreonam alone) was over 128 µg/mL; in test [4] (aztreonam alone), 64 µg/mL; in [5] (read-out: Aztreonam MIC) it was over 128 µg/mL; in test [6] (read-out: Aztreonam MIC), over 128 µg/mL; in test [7] (aztreonam alone), 128 µg/mL; in test [8] (aztreonam alone) it was 64 µg/mL. For the same compound, the MIC in [9] (aztreonam alone) and in test [10] (aztreonam alone) was over 128 µg/mL in each case.
As for `C[C@@H](O)[C@H]1C(=O)N2C(C(=O)O)=C(S[C@@H]3CN[C@H](C(=O)N(C)C)C3)[C@H](C)[C@H]12` [Meropenem], the MIC in [1] (Acinetobacter baumannii, read-out: Meropenem MIC) was 32 µg/mL; in [2] (Acinetobacter baumannii, meropenem alone), over 64 µg/mL.

The values are drawn from US12016868B2, “Boronic acid derivatives and therapeutic uses thereof” (Qpex Biopharma, Inc., priority 2018, dated 2024).
